According to US7632972B2, “Compounds and methods for treatment of cancer and modulation of programmed cell death for melanoma and other cancer cells” (The Board of Trustees of the University of Illionis, priority 2003, dated 2009):

Legend:
Assay type in all cases: cell-based, human
EKVX = experiment: NCI 60 cell line screen (SRB), Non-Small Cell Lung Cancer
Excerpt: (§1) The operation of this screen utilizes 60 different human tumor cell lines, representing leukemia, melanoma and cancers of the lung, colon, brain, ovary, breast, prostate, and kidney. The aim is to prioritize for further evaluation, synthetic compounds or natural product samples showing selective growth inhibition or cell killing of particular tumor cell lines. This screen is unique in that the complexity of a 60 cell line dose response produced by a given compound results in a biological response pattern which can be utilized in pattern recognition algorithms. Using these algorithms, it is possible to assign a putative mechanism of action to a test compound, or to determine that the response pattern is unique and not similar to that of any of the standard prototype compounds included in the NCl database (see DTP Overview tab). In addition, following characterization of various cellular molecular targets in the 60 cell lines, it may be possible to select compounds most likely to interact with a specific molecular target.
(§2) The human tumor cell lines of the cancer screening panel are grown in RPMI 1640 medium containing 5% fetal bovine serum and 2 mM L-glutamine. For a typical screening experiment, cells are inoculated into 96 well microtiter plates in 100 μL at plating densities ranging from 5,000 to 40,000 cells/well depending on the doubling time of individual cell lines. After cell inoculation, the microtiter plates are incubated at 37° C., 5% CO2, 95% air and 100% relative humidity for 24 h prior to addition of experimental drugs.
(§3) After 24 h, two plates of each cell line are fixed in situ with TCA, to represent a measurement of the cell population for each cell line at the time of drug addition (Tz). Experimental drugs are solubilized in dimethyl sulfoxide at 400-fold the desired final maximum test concentration and stored frozen prior to use. At the time of drug addition, an aliquot of frozen concentrate is thawed and diluted to twice the desired final maximum test concentration with complete medium containing 50 μg/ml gentamicin. Additional four, 10-fold or ½ log serial dilutions are made to provide a total of five drug concentrations plus control. Aliquots of 100 μl of these different drug dilutions are added to the appropriate microtiter wells already containing 100 μl of medium, resulting in the required final drug concentrations.
(§4) Following drug addition, the plates are incubated for an additional 48 h at 37° C., 5% CO2, 95% air, and 100% relative humidity. For adherent cells, the assay is terminated by the addition of cold TCA. Cells are fixed in situ by the gentle addition of 50 μl of cold 50% (w/v) TCA (final concentration, 10% TCA) and incubated for 60 minutes at 4° C. The supernatant is discarded, and the plates are washed five times with tap water and air dried. Sulforhodamine B (SRB) solution (100 μl) at 0.4% (w/v) in 1% acetic acid is added to each well, and plates are incubated for 10 minutes at room temperature. After staining, unbound dye is removed by washing five times with 1% acetic acid and the plates are air dried. Bound stain is subsequently solubilized with 10 mM trizma base, and the absorbance is read on an automated plate reader at a wavelength of 515 nm. For suspension cells, the methodology is the same except that the assay is terminated by fixing settled cells at the bottom of the wells by gently adding 50 μl of 80% TCA (final concentration, 16% TCA). Using the seven absorbance measurements [time zero, (Tz), control growth, (C), and test growth in the presence of drug at the five concentration levels (Ti)], the percentage growth is calculated at each of the drug concentrations levels. Percentage growth inhibition is calculated as: [(Ti−Tz)/(C−Tz)]×100 for concentrations for which Ti>/=Tz [(Ti−Tz)/Tz]×100 for concentrations for which Ti<Tz.
(§5) Three dose response parameters are calculated for each experimental agent. […]

HOP-62 = experiment: as above
Excerpt: as §1, §2, §3, §4, §5

MCF7 = experiment: NCI 60 cell line screen (SRB), Breast Cancer
Excerpt: as §1, §2, §3, §4, §5

HS 578T = experiment: NCI 60 cell line screen (SRB), Breast Cancer
Excerpt: as §1, §2, §3, §4, §5

MDA-MB-231/ATCC = experiment: NCI 60 cell line screen (SRB), Breast Cancer
Excerpt: as §1, §2, §3, §4, §5

T-47D = experiment: NCI 60 cell line screen (SRB), Breast Cancer
Excerpt: as §1, §2, §3, §4, §5

NCI/ADR-RES = experiment: NCI 60 cell line screen (SRB), Breast Cancer
Excerpt: as §1, §2, §3, §4, §5

BT-549 = experiment: NCI 60 cell line screen (SRB), Breast Cancer
Excerpt: as §1, §2, §3, §4, §5

MDA-MB-435 = experiment: NCI 60 cell line screen (SRB), Breast Cancer
Excerpt: as §1, §2, §3, §4, §5

[1] = read-out: LC50 (the source's name)

Question: With COc1cccc(CCNC(=O)CC(c2ccccc2)(c2ccccc2)c2ccccc2)c1 [Compound Z3] as the compound, how does the GI50 (EKVX) read?
Answer: 22.7 µM

Question: And the TGI (EKVX)?
Answer: >1.00E−04

Question: And the “Percent Growth” value (EKVX; Log10 Concentration −4.0)?
Answer: 29%

Question: What about the “Percent Growth” value (EKVX; Log10 Concentration −5.0) of the same compound?
Answer: 62%

Question: And the “Percent Growth” value (EKVX; Log10 Concentration −6.0)?
Answer: 109%

Question: What about the “Percent Growth” value (EKVX; Log10 Concentration −7.0) of the same compound?
Answer: 121%

Question: And the “Percent Growth” value (EKVX; Log10 Concentration −8.0)?
Answer: 108%

Question: What about the CC50 (EKVX; [1]) of the same compound?
Answer: > 100 µM

Question: And the GI50 (HOP-62; HOP-62)?
Answer: 59.4 µM

Question: What about the TGI (HOP-62; HOP-62) of the same compound?
Answer: >1.00E−04

Question: What about the “Percent Growth” value (HOP-62; HOP-62, Log10 Concentration −4.0) of the same compound?
Answer: 40%

Question: What about the “Percent Growth” value (HOP-62; HOP-62, Log10 Concentration −5.0) of the same compound?
Answer: 83%

Question: And the “Percent Growth” value (HOP-62; HOP-62, Log10 Concentration −6.0)?
Answer: 97%

Question: What about the “Percent Growth” value (HOP-62; HOP-62, Log10 Concentration −7.0) of the same compound?
Answer: 105%

Question: And the “Percent Growth” value (HOP-62; HOP-62, Log10 Concentration −8.0)?
Answer: 92%

Question: What about the CC50 (HOP-62; HOP-62, read-out: LC50 (the source's name)) of the same compound?
Answer: > 100 µM

Question: What about the GI50 (MCF7; MCF7) of the same compound?
Answer: 21.5 µM

Question: And the TGI (MCF7; MCF7)?
Answer: >1.00E−04

Question: And the “Percent Growth” value (MCF7; MCF7, Log10 Concentration −4.0)?
Answer: 31%

Question: What about the “Percent Growth” value (MCF7; MCF7, Log10 Concentration −5.0) of the same compound?
Answer: 60%

Question: And the “Percent Growth” value (MCF7; MCF7, Log10 Concentration −6.0)?
Answer: 85%

Question: What about the “Percent Growth” value (MCF7; MCF7, Log10 Concentration −7.0) of the same compound?
Answer: 116%

Question: What about the “Percent Growth” value (MCF7; MCF7, Log10 Concentration −8.0) of the same compound?
Answer: 91%

Question: And the CC50 (MCF7; MCF7, read-out: LC50 (the source's name))?
Answer: > 100 µM

Question: And the GI50 (HS 578T; MS 578T)?
Answer: > 100 µM

Question: And the TGI (HS 578T; MS 578T)?
Answer: >1.00E−04

Question: And the “Percent Growth” value (HS 578T; MS 578T, Log10 Concentration −4.0)?
Answer: 55%

Question: What about the “Percent Growth” value (HS 578T; MS 578T, Log10 Concentration −5.0) of the same compound?
Answer: 85%

Question: And the “Percent Growth” value (HS 578T; MS 578T, Log10 Concentration −6.0)?
Answer: 101%

Question: What about the “Percent Growth” value (HS 578T; MS 578T, Log10 Concentration −7.0) of the same compound?
Answer: 126%

Question: And the “Percent Growth” value (HS 578T; MS 578T, Log10 Concentration −8.0)?
Answer: 101%

Question: And the CC50 (HS 578T; [1])?
Answer: > 100 µM

Question: What about the GI50 (MDA-MB-231/ATCC) of the same compound?
Answer: > 100 µM

Question: And the TGI (MDA-MB-231/ATCC)?
Answer: >1.00E−04

Question: And the “Percent Growth” value (MDA-MB-231/ATCC; Log10 Concentration −4.0)?
Answer: 147%

Question: What about the “Percent Growth” value (MDA-MB-231/ATCC; Log10 Concentration −5.0) of the same compound?
Answer: 75%

Question: And the “Percent Growth” value (MDA-MB-231/ATCC; Log10 Concentration −6.0)?
Answer: 59%

Question: And the “Percent Growth” value (MDA-MB-231/ATCC; Log10 Concentration −7.0)?
Answer: 69%

Question: What about the “Percent Growth” value (MDA-MB-231/ATCC; Log10 Concentration −8.0) of the same compound?
Answer: 68%

Question: And the CC50 (MDA-MB-231/ATCC; [1])?
Answer: > 100 µM

Question: And the GI50 (T-47D)?
Answer: > 100 µM

Question: What about the TGI (T-47D) of the same compound?
Answer: >1.00E−04

Question: What about the “Percent Growth” value (T-47D; Log10 Concentration −4.0) of the same compound?
Answer: 84%

Question: And the “Percent Growth” value (T-47D; Log10 Concentration −5.0)?
Answer: 55%

Question: What about the “Percent Growth” value (T-47D; Log10 Concentration −6.0) of the same compound?
Answer: 78%

Question: And the “Percent Growth” value (T-47D; Log10 Concentration −7.0)?
Answer: 108%

Question: What about the “Percent Growth” value (T-47D; Log10 Concentration −8.0) of the same compound?
Answer: 78%

Question: What about the CC50 (T-47D; [1]) of the same compound?
Answer: > 100 µM

Question: And the GI50 (NCI/ADR-RES)?
Answer: 5.26 µM

Question: What about the TGI (NCI/ADR-RES) of the same compound?
Answer: >1.00E−04

Question: And the “Percent Growth” value (NCI/ADR-RES; Log10 Concentration −4.0)?
Answer: 27%

Question: And the “Percent Growth” value (NCI/ADR-RES; Log10 Concentration −5.0)?
Answer: 42%

Question: And the “Percent Growth” value (NCI/ADR-RES; Log10 Concentration −6.0)?
Answer: 69%

Question: What about the “Percent Growth” value (NCI/ADR-RES; Log10 Concentration −7.0) of the same compound?
Answer: 93%

Question: And the “Percent Growth” value (NCI/ADR-RES; Log10 Concentration −8.0)?
Answer: 69%

Question: And the CC50 (NCI/ADR-RES; [1])?
Answer: > 100 µM

Question: And the GI50 (BT-549; BT-549)?
Answer: > 100 µM

Question: And the TGI (BT-549; BT-549)?
Answer: >1.00E−04

Question: And the “Percent Growth” value (BT-549; BT-549, Log10 Concentration −4.0)?
Answer: 69%

Question: What about the “Percent Growth” value (BT-549; BT-549, Log10 Concentration −5.0) of the same compound?
Answer: 81%

Question: What about the “Percent Growth” value (BT-549; BT-549, Log10 Concentration −6.0) of the same compound?
Answer: 107%

Question: What about the “Percent Growth” value (BT-549; BT-549, Log10 Concentration −7.0) of the same compound?
Answer: 126%

Question: What about the “Percent Growth” value (BT-549; BT-549, Log10 Concentration −8.0) of the same compound?
Answer: 100%

Question: And the CC50 (BT-549; BT-549, read-out: LC50 (the source's name))?
Answer: > 100 µM

Question: What about the GI50 (MDA-MB-435; MDA-MB-435) of the same compound?
Answer: 6.5 µM

Question: What about the TGI (MDA-MB-435; MDA-MB-435) of the same compound?
Answer: >1.00E−04

Question: And the “Percent Growth” value (MDA-MB-435; MDA-MB-435, Log10 Concentration −4.0)?
Answer: 28%

Question: What about the “Percent Growth” value (MDA-MB-435; MDA-MB-435, Log10 Concentration −5.0) of the same compound?
Answer: 40%

Question: And the “Percent Growth” value (MDA-MB-435; MDA-MB-435, Log10 Concentration −6.0)?
Answer: 91%

Question: What about the “Percent Growth” value (MDA-MB-435; MDA-MB-435, Log10 Concentration −7.0) of the same compound?
Answer: 109%

Question: What about the “Percent Growth” value (MDA-MB-435; MDA-MB-435, Log10 Concentration −8.0) of the same compound?
Answer: 92%

Question: What about the CC50 (MDA-MB-435; MDA-MB-435, read-out: LC50 (the source's name)) of the same compound?
Answer: > 100 µM
